The record followed here is patent US20240245793A1, “PSD-95 INHIBITORS AND USES THEREOF” (priority 2021, published 2024).

The first series concerns HeLa cells stably expressing HaloGFP. Put plainly: Chloroalkane penetration assay (CAPA), membrane permeability and cellular uptake. The class given is cell-based.
Settings: not given
The source says: Since PSD-95 is located intracellularly, it is essential for any drug targeting PSD-95 to efficiently cross the cell membrane. To assess the cellular permeability and delivery to the cytosol of the compounds as defined herein, the cellular chloroalkane penetration assay (CAPA) may be used (Peraro et al. 2018). This assay takes advantage of a modified haloalkane dehalogenase designed to covalently bind chloroalkane (CA) molecules. A HeLa cell line expressing a fusion protein comprising a HaloTag, a green fluorescent protein (GFP) and a mitochondria-targeting peptide is used to report cytosolic delivery. The general format of the CAPA is a pulse-chase assay (Deprey & Kritzer, 2020). Cells expressing the HaloTag enzyme are incubated with CA-tagged peptides. When these CA-peptides penetrate the cell membrane and reach the cytosol, they will bind to and react with the HaloTag (pulse step). Following a washing step, the cells are incubated with a CA-tagged dye that quantitatively penetrates the cell membrane and reacts with remaining unreacted HaloTag sites (chase step). Flow cytometry is used to measure the fluorescence intensity of the cells and the measured fluorescence is inversely proportional to the amount of CA-peptides that reach the penetrated the cells and can thus be used to assess cytosolic delivery. The obtained data is commonly expressed as CP50 values, the concentration at which 50% cell penetration is observed. The CP50 value of a compound may be measured as described in example 4.
The membrane permeability of compounds 10 to 75 was determined in HeLa cells stably expressing HaloGFP exclusively located in the cytosol. Cells were seeded at a density of 40.000 cells/well one day prior to the experiment. After the growth media was aspirated and replaced by 100 μL of Opti-MEM, 25 μL of a prepared serial dilution of the ligand in Opti-MEM was added to the cells (constant DMSO concentration), and the plate was incubated for 4 h at 37° C. and 5% CO2. The contents of the wells were aspirated, and cells were washed with fresh Opti-MEM for 15 min. After aspiration of the wash, the cells were incubated with TAMRA-CA (5 μM) for 15 min. After aspiration of the chase solution, cells were washed with Opti-MEM for 30 min. Following removal of the wash, cells were trypsinized, resuspended in PBS (2% FBS), and analyzed using a benchtop flow cytometer. Using no ligand and no TAMRA-CA control well, the obtained fluorescence intensity data was normalized and plotted as dose-response curves. Reported CP50 values represent half-maximum red fluorescence which behaves inverse to cell penetration of the ligand.
Consider `CC(C)C[C@H](NC(=O)[C@@H](NC(=O)[C@H](CCC(=O)O)NC(=O)[C@H](CCCCN)NC(=O)CCOCCOCCN(CCOCCOCCC(=O)N[C@@H](CCCCN)C(=O)N[C@@H](CCC(=O)O)C(=O)N[C@H](C(=O)N[C@@H](CC(C)C)C(=O)N[C@H](C(=O)O)C(C)C)[C@@H](C)O)C(=O)[C@H](CCCNC(=N)N)NC(=O)[C@H](CCCNC(=N)N)NC(=O)[C@H](CCCNC(=N)N)NC(=O)[C@H](CCCNC(=N)N)NC(=O)CCC(=O)NCCOCCOCCCCCCCl)[C@@H](C)O)C(=O)N[C@H](C(=O)O)C(C)C` [Compound 74], for which the CP50 stood at 0.37 ± 0.08 µM. For `CC(C)C[C@H](NC(=O)[C@@H](NC(=O)[C@H](CCC(=O)O)NC(=O)[C@H](CCCCN)NC(=O)CCOCCOCCN(CCOCCOCCC(=O)N[C@@H](CCCCN)C(=O)N[C@@H](CCC(=O)O)C(=O)N[C@H](C(=O)N[C@@H](CC(C)C)C(=O)N[C@H](C(=O)O)C(C)C)[C@@H](C)O)C(=O)[C@H](CCCNC(=N)N)NC(=O)[C@H](CCCNC(=N)N)NC(=O)[C@H](CCCNC(=N)N)NC(=O)[C@H](CCCNC(=N)N)NC(=O)[C@H](CCCNC(=N)N)NC(=O)CCC(=O)NCCOCCOCCCCCCCl)[C@@H](C)O)C(=O)N[C@H](C(=O)O)C(C)C` [Compound 72], the CP50 amounted to 0.66 ± 0.14 µM. Same read-out and setting: then `CC[C@H](C)[C@H](NC(=O)CCOCCOCCN(CCOCCOCCC(=O)N[C@H](C(=O)N[C@@H](CCC(=O)O)C(=O)N[C@H](C(=O)N[C@@H](CC(=O)O)C(=O)N[C@H](C(=O)O)C(C)C)[C@@H](C)O)[C@@H](C)CC)C(=O)[C@H](CCCNC(=N)N)NC(=O)[C@H](CCCNC(=N)N)NC(=O)[C@H](CCCNC(=N)N)NC(=O)[C@H](CCCNC(=N)N)NC(=O)[C@H](CCCNC(=N)N)NC(=O)[C@H](CCCNC(=N)N)NC(=O)[C@H](CCCNC(=N)N)NC(=O)CCC(=O)NCCOCCOCCCCCCCl)C(=O)N[C@@H](CCC(=O)O)C(=O)N[C@H](C(=O)N[C@@H](CC(=O)O)C(=O)N[C@H](C(=O)O)C(C)C)[C@@H](C)O` [Compound 64], with 1.66 ± 0.43 µM; and `CC[C@H](C)[C@H](NC(=O)CCOCCOCCN(CCOCCOCCC(=O)N[C@H](C(=O)N[C@@H](CCC(=O)O)C(=O)N[C@H](C(=O)N[C@@H](CC(=O)O)C(=O)N[C@H](C(=O)O)C(C)C)[C@@H](C)O)[C@@H](C)CC)C(=O)[C@H](CCCCN)NC(=O)[C@H](CO)NC(=O)[C@H](Cc1c[nH]cn1)NC(=O)[C@H](C)NC(=O)[C@H](Cc1c[nH]cn1)NC(=O)[C@H](C)NC(=O)[C@H](CCC(N)=O)NC(=O)[C@H](CCCCN)NC(=O)[C@H](CCCNC(=N)N)NC(=O)[C@@H](NC(=O)[C@H](CCCNC(=N)N)NC(=O)[C@H](CCCNC(=N)N)NC(=O)[C@H](CCCNC(=N)N)NC(=O)[C@H](CC(C)C)NC(=O)[C@@H](NC(=O)[C@@H](NC(=O)[C@H](CC(C)C)NC(=O)[C@H](CC(C)C)NC(=O)CCC(=O)NCCOCCOCCCCCCCl)[C@@H](C)CC)[C@@H](C)CC)[C@@H](C)CC)C(=O)N[C@@H](CCC(=O)O)C(=O)N[C@H](C(=O)N[C@@H](CC(=O)O)C(=O)N[C@H](C(=O)O)C(C)C)[C@@H](C)O` [Compound 53], with 1.7 ± 0.1 µM; and `CC[C@H](C)[C@H](NC(=O)CCOCCOCCN(CCOCCOCCC(=O)N[C@H](C(=O)N[C@@H](CCC(=O)O)C(=O)N[C@H](C(=O)N[C@@H](CC(=O)O)C(=O)N[C@H](C(=O)O)C(C)C)[C@@H](C)O)[C@@H](C)CC)C(=O)[C@@H](CCCNC(=N)N)NC(=O)[C@@H](CCCNC(=N)N)NC(=O)[C@@H](CCCNC(=N)N)NC(=O)[C@@H](CCCNC(=N)N)NC(=O)[C@@H](CCCNC(=N)N)NC(=O)[C@@H](CCCNC(=N)N)NC(=O)[C@@H](CCCNC(=N)N)NC(=O)[C@@H](CCCNC(=N)N)NC(=O)[C@@H](CCCNC(=N)N)NC(=O)CCC(=O)NCCOCCOCCCCCCCl)C(=O)N[C@@H](CCC(=O)O)C(=O)N[C@H](C(=O)N[C@@H](CC(=O)O)C(=O)N[C@H](C(=O)O)C(C)C)[C@@H](C)O` [Compound 45], with 161 ± 25 µM.

In the case of `CC(C)C[C@H](NC(=O)[C@@H](NC(=O)[C@H](CCC(=O)O)NC(=O)[C@H](CCCCN)NC(=O)CCOCCOCCN(CCOCCOCCC(=O)N[C@@H](CCCCN)C(=O)N[C@@H](CCC(=O)O)C(=O)N[C@H](C(=O)N[C@@H](CC(C)C)C(=O)N[C@H](C(=O)O)C(C)C)[C@@H](C)O)C(=O)[C@H](CCCNC(=N)N)NC(=O)[C@H](CCCNC(=N)N)NC(=O)[C@H](CCCNC(=N)N)NC(=O)[C@H](CCCNC(=N)N)NC(=O)[C@H](CCCNC(=N)N)NC(=O)[C@H](CCCNC(=N)N)NC(=O)[C@H](CCCNC(=N)N)NC(=O)CCC(=O)NCCOCCOCCCCCCCl)[C@@H](C)O)C(=O)N[C@H](C(=O)O)C(C)C` [Compound 68], the CP50 is 0.58 ± 0.09 µM. Consider `CC(C)C[C@H](NC(=O)[C@@H](NC(=O)[C@H](CCC(=O)O)NC(=O)[C@H](CCCCN)NC(=O)CCOCCOCCN(CCOCCOCCC(=O)N[C@@H](CCCCN)C(=O)N[C@@H](CCC(=O)O)C(=O)N[C@H](C(=O)N[C@@H](CC(C)C)C(=O)N[C@H](C(=O)O)C(C)C)[C@@H](C)O)C(=O)[C@H](CCCNC(=N)N)NC(=O)[C@H](CCCNC(=N)N)NC(=O)[C@H](CCCNC(=N)N)NC(=O)CCC(=O)NCCOCCOCCCCCCCl)[C@@H](C)O)C(=O)N[C@H](C(=O)O)C(C)C` [Compound 75], for which the CP50 was 7.36 ± 0.31 µM.

Staying with this series, now noted: CA-tagged NPEG4-(IETDV)2 with various CPP-tags, 4 h at 37° C.; mean ± SEM (Table 11, FIG. 8).
In turn, `CC[C@H](C)[C@H](NC(=O)CCOCCOCCN(CCOCCOCCC(=O)N[C@H](C(=O)N[C@@H](CCC(=O)O)C(=O)N[C@H](C(=O)N[C@@H](CC(=O)O)C(=O)N[C@H](C(=O)O)C(C)C)[C@@H](C)O)[C@@H](C)CC)C(=O)[C@H](CCCNC(=N)N)NC(=O)[C@H](CCCNC(=N)N)NC(=O)[C@H](CCCNC(=N)N)NC(=O)[C@H](CCC(N)=O)NC(=O)[C@H](CCCNC(=N)N)NC(=O)[C@H](CCCNC(=N)N)NC(=O)[C@H](CCCCN)NC(=O)[C@H](CCCCN)NC(=O)[C@H](CCCNC(=N)N)NC(=O)CNC(=O)[C@H](Cc1ccc(O)cc1)NC(=O)CCC(=O)NCCOCCOCCCCCCCl)C(=O)N[C@@H](CCC(=O)O)C(=O)N[C@H](C(=O)N[C@@H](CC(=O)O)C(=O)N[C@H](C(=O)O)C(C)C)[C@@H](C)O` [Compound 10] showed a CP50 of 55.1 ± 3.0 µM.

The same series, now with this note: CA-tagged ligands, 4 h at 37° C.; L-TAT and L-Arg9; mean ± SEM (Table 10, FIG. 7).
The compound `CC(C)[C@H](NC(=O)[C@@H](NC(=O)[C@@H](NC(=O)[C@H](CCC(=O)O)NC(=O)[C@H](CCCCN)NC(=O)CCOCCOCCN(CCOCCOCCC(=O)N[C@@H](CCCCN)C(=O)N[C@@H](CCC(=O)O)C(=O)N[C@H](C(=O)N[C@H](C(=O)N[C@H](C(=O)O)C(C)C)[C@@H](C)O)[C@@H](C)O)C(=O)[C@H](CCCNC(=N)N)NC(=O)[C@H](CCCNC(=N)N)NC(=O)[C@H](CCCNC(=N)N)NC(=O)[C@H](CCC(N)=O)NC(=O)[C@H](CCCNC(=N)N)NC(=O)[C@H](CCCNC(=N)N)NC(=O)[C@H](CCCCN)NC(=O)[C@H](CCCCN)NC(=O)[C@H](CCCNC(=N)N)NC(=O)CNC(=O)[C@H](Cc1ccc(O)cc1)NC(=O)CCC(=O)NCCOCCOCCCCCCCl)[C@@H](C)O)[C@@H](C)O)C(=O)O` [Compound 14] showed a CP50 of 78.4 ± 3.9 µM. Regarding `CC[C@H](C)[C@H](NC(=O)CCOCCOCCN(CCOCCOCCC(=O)N[C@H](C(=O)N[C@@H](CCC(=O)O)C(=O)N[C@H](C(=O)N[C@@H](CC(=O)O)C(=O)N[C@H](C(=O)O)C(C)C)[C@@H](C)O)[C@@H](C)CC)C(=O)[C@H](CCCNC(=N)N)NC(=O)[C@H](CCCNC(=N)N)NC(=O)[C@H](CCCNC(=N)N)NC(=O)[C@H](CCC(N)=O)NC(=O)[C@H](CCCNC(=N)N)NC(=O)[C@H](CCCNC(=N)N)NC(=O)[C@H](CCCCN)NC(=O)[C@H](CCCCN)NC(=O)[C@H](CCCNC(=N)N)NC(=O)CNC(=O)[C@H](Cc1ccc(O)cc1)NC(=O)CCC(=O)NCCOCCOCCCCCCCl)C(=O)N[C@@H](CCC(=O)O)C(=O)N[C@H](C(=O)N[C@@H](CC(=O)O)C(=O)N[C@H](C(=O)O)C(C)C)[C@@H](C)O` [Compound 10], the CP50 worked out at 55.1 ± 3.0 µM. Same read-out and setting: then `CC(C)[C@H](NC(=O)[C@@H](NC(=O)[C@@H](NC(=O)[C@H](CCC(=O)O)NC(=O)[C@H](CCCCN)NC(=O)CCOCCOCCN(CCOCCOCCC(=O)N[C@@H](CCCCN)C(=O)N[C@@H](CCC(=O)O)C(=O)N[C@H](C(=O)N[C@H](C(=O)N[C@H](C(=O)O)C(C)C)C(C)C)[C@@H](C)O)C(=O)[C@H](CCCNC(=N)N)NC(=O)[C@H](CCCNC(=N)N)NC(=O)[C@H](CCCNC(=N)N)NC(=O)[C@H](CCC(N)=O)NC(=O)[C@H](CCCNC(=N)N)NC(=O)[C@H](CCCNC(=N)N)NC(=O)[C@H](CCCCN)NC(=O)[C@H](CCCCN)NC(=O)[C@H](CCCNC(=N)N)NC(=O)CNC(=O)[C@H](Cc1ccc(O)cc1)NC(=O)CCC(=O)NCCOCCOCCCCCCCl)[C@@H](C)O)C(C)C)C(=O)O` [Compound 16], with 81.8 ± 1.2 µM.

In turn, `CC(C)[C@H](NC(=O)[C@H](CCCNC(=N)N)NC(=O)[C@@H](NC(=O)[C@H](CCC(=O)O)NC(=O)[C@H](CCCCN)NC(=O)CCOCCOCCN(CCOCCOCCC(=O)N[C@@H](CCCCN)C(=O)N[C@@H](CCC(=O)O)C(=O)N[C@H](C(=O)N[C@@H](CCCNC(=N)N)C(=O)N[C@H](C(=O)O)C(C)C)[C@@H](C)O)C(=O)[C@H](CCCNC(=N)N)NC(=O)[C@H](CCCNC(=N)N)NC(=O)[C@H](CCCNC(=N)N)NC(=O)[C@H](CCC(N)=O)NC(=O)[C@H](CCCNC(=N)N)NC(=O)[C@H](CCCNC(=N)N)NC(=O)[C@H](CCCCN)NC(=O)[C@H](CCCCN)NC(=O)[C@H](CCCNC(=N)N)NC(=O)CNC(=O)[C@H](Cc1ccc(O)cc1)NC(=O)CCC(=O)NCCOCCOCCCCCCCl)[C@@H](C)O)C(=O)O` [Compound 18] came in with a CP50 of 47.7 ± 1.0 µM.
